According to patent US20160060285A1, “Aminoglycosides, Methods of Synthesis, and Associated Applications” (UTAH STATE UNIVERSITY, priority 2010, published 2016):
In brackets after ≈: the same amount, converted by molar mass.

Tests used:
[1] = test system: azole-resistant Candida albicans ATCC 64124; experiment: Antifungal synergism by checkerboard analysis, K-compound and azole combinations; type: cell-based; conditions: Candida albicans, ATCC64124, K4608 checkerboard table; compound alone
[2] = test system: Candida albicans ATCC MYA-2876 (azole sensitive); experiment: Fungal MIC and MFC, microbroth dilution assay (M27-A3); type: cell-based; conditions: C. albicans MYA2876 (azole sensitive)
[3] = test system: Fusarium graminearum B4-5A; experiment: microbe, parasite or virus in culture; type: cell-based; conditions: Fusarium graminearum, B45A, 48 h
[4] = test system: Candida albicans ATCC64124 (azole-resistant); experiment: microbe, parasite or virus in culture; type: cell-based
[5] = test system: Staphylococcus aureus ATCC25923; experiment: Bacterial growth inhibition (MIC) test, microtiter plate, CLSI protocol; type: cell-based; conditions: Staphylococcus aureus, ATCC25923; S. aureus 25923; 37° C., 24 hours; read-out: MIC
HeLa cells = experiment: Cell viability assay (MTT), cytotoxicity test; type: cell-based, human; conditions: for Viable Cells Percentage Compared to Control: MTT
Protocol: HeLa cells were grown in commercial DMEM 1× (Gibco) with 10% fetal bovine serum (FBS, Gibco), 100 U/mL penicillin, and 100 μg/mL streptomycin at 37° C. and 5% CO2. The cells were allowed to adhere for 24 h before drug treatment.
The cells were seeded in 96-well microtiter plates (10,000/200 μL). After 24 h of incubation in the media, cells were treated with various concentrations of K608, K4608 and K408 (0.0, 1.0, 10.0, 100.0, 1000 μg/mL and Trition 1×) for 48 h. 20 μL of MTT stock solution (5 mg/mL) was added to each well and incubated for 4 h at 37° C. Upon completion of incubation, the media was carefully removed and washed twice with […] of pbs buffer. Then, 200 μL of DMSO was added to each well; agitated on orbital shaker for 15 min., and the absorbance at 570 nm with 670 nm filter was determined with a microplate reader (Synergy H4). The results are expressed as viability compared with that of control. The experiment was carried out in triplicate in three independent experiments.

[6] = test system: Escherichia coli ATCC 25922; experiment: Bacterial growth inhibition (MIC) test, microtiter plate, CLSI protocol; type: cell-based; conditions: Escherichia coli, ATCC25922; E. coli 25922; Luria-Bertani medium, 37° C., 24 hours; read-out: MIC

With `CCCCCCCCOC[C@H]1OC(O[C@@H]2C(N)CC(N)C(O[C@H]3OC(CN)[C@@H](O)[C@H](O)C3O)[C@@H]2O)[C@H](O)[C@H](N)C1OCCCCCCCC` (some centres unmarked) [Compound K4608] the MIC [1] was 31.2 µg/mL, the MIC ([2]; RPMI 1640, 35° C., 48 hours) was 1.2 to 2.4 µg/mL (≈ 1.69 to 3.39 µM) and the MFC ([2]; subculture on Sabouraud dextrose agar after MIC test) was 2.4 µg/mL (≈ 3.39 µM). It also gave an MIC [3] of 15.6 µg/mL (≈ 22 µM), an MFC ([4]; ATCC64124) of 9.8 µg/mL (≈ 13.8 µM) and an MIC ([4]; ATCC64124, 48 h) of 4.9 to 9.8 µg/mL (≈ 6.91 to 13.8 µM). For the same molecule, the MIC [5] was over 250 µg/mL, the “toxicity to human cervical cancer cell line HeLa” value (HeLa cells; 1.0 to 1000 μg/mL, 48 h) was “not toxic” and the “Viable Cells Percentage Compared to Control” value (HeLa cells; HeLa, 1 μg/mL, 48 h) was 124.28%. For the same molecule, the “Viable Cells Percentage Compared to Control” value (HeLa cells; HeLa, 10 μg/mL, 48 h) was 149.52%, the “Viable Cells Percentage Compared to Control” value (HeLa cells; HeLa, 100 μg/mL, 48 h) was 129.86% and the “Viable Cells Percentage Compared to Control” value (HeLa cells; HeLa, 1000 μg/mL, 48 h) was 122.93%. For the same molecule, the “effect on growth of cells (number of viable cells)” value (HeLa cells; HeLa, wells treated with compound) was “promoted growth of cells” and the MIC [6] was over 250 µg/mL.
